US20060100210A1, “Methods for treatment of scleroderma” (priority 2001, published 2006)
Where a name gives a salt, the structure may show the parent alone. Read-outs that look alike come from different tables or passages of the source.

Tests used:
[1] = biological target: T1, GST-cGB-PDE5 fusion protein (cGMP binding sites of human PDE5A) (Homo sapiens, UniProt O76074); assay: cGMP binding assay with GST-cGB-PDE5 fusion protein; details: for competition with cGMP in binding of GST-cGB-PDE5: high concentration (100 μM) vs cGMP (2 μM)
T1 construct: made in house; host or cells: E. coli BL21 (DE3)
T1 sequence (O76074 46-539 limits assumed): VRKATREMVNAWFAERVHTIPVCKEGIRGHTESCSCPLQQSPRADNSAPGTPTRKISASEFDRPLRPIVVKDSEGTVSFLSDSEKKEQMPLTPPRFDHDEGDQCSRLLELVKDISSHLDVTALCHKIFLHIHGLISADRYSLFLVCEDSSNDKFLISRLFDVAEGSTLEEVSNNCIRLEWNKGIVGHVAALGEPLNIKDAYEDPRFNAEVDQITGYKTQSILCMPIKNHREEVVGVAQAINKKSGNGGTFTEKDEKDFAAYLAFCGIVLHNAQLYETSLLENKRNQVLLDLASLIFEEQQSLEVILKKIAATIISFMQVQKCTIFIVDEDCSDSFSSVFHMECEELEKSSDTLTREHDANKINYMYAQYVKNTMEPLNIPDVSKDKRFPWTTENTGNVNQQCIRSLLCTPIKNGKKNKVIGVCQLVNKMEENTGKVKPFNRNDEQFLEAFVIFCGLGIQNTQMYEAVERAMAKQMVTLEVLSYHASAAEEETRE
Excerpt: RT-PCR method is used to obtain the cGB domain of PDE5 with forward and reverse primers designed from bovine PDE5A cDNA sequence (McAllister-Lucas L. M. et al, J. Biol. Chem. 268, 22863-22873, 1993) and the selection among PDE 1-10 families. 5′-3′, Inc. kits for total RNA followed by oligo (dT) column purification of mRNA are used with HT-29 cells. […] It is then cloned into pGEX-5×-3 […] (GST) fusion vector (Pharmacia Biotech) with tac promoter, and EcoRI and XhoI cut sites. The fusion vector is then transfected into E. Coli BL21 (DE3) bacteria (Invitrogen). The transfected BL21 bacteria is grown to log phase, and then IPTG is added as an inducer. The induction is carried at 20° C. for 24 hrs. The bacteria are harvested and lysed. The soluble cell lysate is incubated with GSH conjugated Sepharose 4B (GSH-Sepharose 4B). The GST-cGB-PDE5 fusion protein can bind to the GSH-Sepharose beads, and the other proteins are washed off from beads with excessive cold PBS.
The vials are counted on a Beckman LS 6500 scintillation counter.
The quenching by filter membrane or other debris are also calibrated.

[2] = Seven-day dose-range finding study in rats; type: in vivo; details: 7 days, 500 mg/kg/day
[3] = Long-term safety assessment, 91 consecutive days, rats; type: in vivo; details: 91 days, 200 and 500 mg/kg/day
Excerpt: These changes were not associated with any gross clinical abnormality.

U937 cells = assay: Apoptosis induction of U937 cells (active caspase 3, indirect immunofluorescence); type: cell-based; details: 1 μM, 24 hours
Method: The presence of PDE2 and PDE5 protein within U937 cells was confirmed by indirect immunofluorescence (IIF). U937 cells were cultured as above. Two U937 cultures, one grown in the presence of 5 nM TPA for 48 hours and one grown in normal media were processed. All cultures were collected by centrifugation (Shandon Cytospin, 2 minutes @ 600 rpm) onto poly-L lysine-coated slides and immediately fixed in fresh 3% paraformaldehyde buffered in PBS for 10 minutes. Adherent cultures were grown on coverslips and fixed as above. Cells were permeablized in 0.2% triton-100 for 2 minutes. Slides were blocked with blocking buffer (5% goat serum, 5% glycerol, 1% gelatin from cold water fish skin and 0.04% NaN3 in PBS) for 1 hour at room temperature.
Slides were then incubated for 1 hour at 37° C. in a humid chamber with antibodies specific for PDE2 (generated in a sheep against the peptide […]) or PDE5 (generated in sheep against the peptide […]). The PDE5 antibody was used at a dilution of 1:200 and the PDE2 antibody was used at a dilution of 1:100. All dilutions were performed in blocking buffer. […]
The level of apoptosis in U937 cells was quantified by scoring 500 consecutive cells for the presence of active caspase 3. […]

[4] = in vivo; cited from earlier work

Molecule	competition with cGMP in binding of GST-cGB-PDE5 (cGMP binding sites) ([1]; 3H-cGMP 2 μM, 22° C., 1 hour)	other results
CCCCOC1C2OP(=O)(O)OCC2OC1n1cnc2c(N)ncnc21 (stereo not shown) [2′-O-butyl-cAMP]	did not compete with cGMP in binding	–
CCCCOC1C2OP(=O)(O)OCC2OC1n1cnc2c(=O)[nH]c(N)nc21 (stereo not shown) [2′-O-butyl-cGMP]	did not compete with cGMP in binding	–
CC1=C(CC(=O)NCc2ccccc2)c2cc(F)ccc2/C1=C\c1ccncc1 [Compound 38, (Z)-5-Fluoro-2-Methyl-(4-Pyridylidene)-3-(N-Benzyl) Indenylacetamide Hydrochloride]	does not bind to the cGMP-binding site of PDE5	treatment-related effects [2]: limited to an increase in absolute and relative liver weights in female rats; microscopic findings [3]: slight hepatocellular hypertrophy at 200 and 500 mg/kg/day groups, follicular cell hypertrophy at 500 mg/kg/day and increase in accumulation of hyalin droplets in the kidneys at 200 and 500 mg/kg/day group; apoptosis by presence of active caspase 3 (FIG. 8) (U937 cells): undergoing apoptosis
Nc1ncnc2c1ncn2[C@@H]1O[C@@H]2COP(=O)(O)O[C@H]2[C@H]1O [Cyclic AMP]	–	competition with cGMP in binding of GST-cGB-PDE5 (cGMP binding sites) [1]: did not compete with cGMP in binding
O=c1[nH]cnc2c1ncn2[C@@H]1O[C@@H]2COP(=O)(O)O[C@H]2[C@H]1O [Cyclic IMP, cyclic IMP]	–	competition with cGMP in binding of GST-cGB-PDE5 [1]: can partially compete with cGMP
Nc1nc2c(nc(Br)n2[C@@H]2O[C@@H]3COP(=O)(O)O[C@H]3[C@H]2O)c(=O)[nH]1 [Example 8-bromo-cGMP, 8-bromo-cGMP]	–	competition with cGMP in binding of GST-cGB-PDE5 [1]: can partially compete with cGMP
O=C(O)C1CCN(c2nc(NCc3ccc4c(c3)OCO4)c3cc(Cl)ccc3n2)CC1 [Example E4021]	None of the PDE5 inhibitors showed any competition with cGMP	–
CSc1ccc(/C=C2/C(C)=C(CC(=O)O)c3cc(F)ccc32)cc1 [Sulindac sulfide, sulindac sulfide]	None of the PDE5 inhibitors showed any competition with cGMP	–
Nc1ccn([C@@H]2O[C@@H]3COP(=O)(O)O[C@H]3[C@H]2O)c(=O)n1 [cCMP, cyclic CMP]	did not compete with cGMP in binding	–
O=c1ccn([C@@H]2O[C@@H]3COP(=O)(O)O[C@H]3[C@H]2O)c(=O)[nH]1 [cUMP, cyclic UMP]	did not compete with cGMP in binding	–
CC1=C(CC(=O)O)c2cc(F)ccc2/C1=C\c1ccc(S(C)(=O)=O)cc1 [exisulind]	None of the PDE5 inhibitors showed any competition with cGMP	–
CCCOc1ccccc1-c1nc2nn[nH]c2c(=O)[nH]1 [zaprinast]	None of the PDE5 inhibitors showed any competition with cGMP	–
interferon gamma: interferon, drug that affects certain factors in the immune system	–	skin symptoms [4]: modest improvement in skin symptoms
